Measurements reported in PubChem BioAssay AID328 (DTP/NCI, 2004).
“And” between values parts separate entries of the source, which are not always exact repeats. Identical values can stand only once. Inconclusive results and toxic doses are left out. The calls were made as follows: active = survival T/C of 150% or more; inactive = T/C below 125% in these data.

Tested on: BDF1 mice, P388 leukemia ip, median survival T/C
Assay: NCI In Vivo Anticancer Drug Screen. Data for tumor model P388 Leukemia (intraperitoneal) in B6D2F1 (BDF1) mice
Conditions: endpoint: median survival time, higher = longer survival
Method in brief: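 In tumour-bearing mice, survival after compound treatment is set against the vehicle group and given as a quotient.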

[1] = dose: 100.0 mg/kg/injection, schedule: Q01DX009 (ip), vehicle: saline with Tween-80
[2] = dose: 100.0 mg/kg/injection, schedule: Q04DX003 (ip), vehicle: saline with Tween-80
[3] = dose: 200.0 mg/kg/injection, schedule: Q01DX009 (ip), vehicle: saline with Tween-80
[4] = dose: 200.0 mg/kg/injection, schedule: Q04DX003 (ip), vehicle: saline with Tween-80
[5] = dose: 400.0 mg/kg/injection, schedule: Q01DX009 (ip), vehicle: saline with Tween-80

Measured: T/C

NC(=O)c1ccc(N)nc1
inactive: dose: 6.25 mg/kg/injection, schedule: Q04DX003 (ip), vehicle: saline 121 % of control | dose: 8.33 mg/kg/injection, schedule: Q04DX003 (ip), vehicle: saline with Tween-80 100 % of control | dose: 12.5 mg/kg/injection, schedule: Q04DX003 (ip), vehicle: saline with Tween-80 100 % of control | dose: 18.75 mg/kg/injection, schedule: Q04DX003 (ip), vehicle: saline with Tween-80 105 % of control and 108 % of control | dose: 25.0 mg/kg/injection, schedule: Q04DX003 (ip), vehicle: saline 114 % of control

Cc1ccc([N+](=O)[O-])cc1NC(=O)Oc1ccccc1
inactive: dose: 100.0 mg/kg/injection, schedule: Q04DX003 (ip), vehicle: other 92 % of control | dose: 200.0 mg/kg/injection, schedule: Q04DX003 (ip), vehicle: other 96 % of control | dose: 400.0 mg/kg/injection, schedule: Q04DX003 (ip), vehicle: other 96 % of control

COB1OB(OC)OB(OC)O1
inactive: [1] 104 % of control | [2] 100 % of control | [3] 100 % of control | [4] 100 % of control | [5] 109 % of control | dose: 400.0 mg/kg/injection, schedule: Q04DX003 (ip), vehicle: saline with Tween-80 100 % of control

CCOC(=O)C(Cc1ccc(OC)c(OC)c1)C(Cc1ccc(OC)c(OC)c1)C(=O)OCC (stereo not given)
inactive: [1] 90 % of control | [3] 104 % of control

OCCOc1c(Cl)cc(Cl)cc1Cl
inactive: dose: 50.0 mg/kg/injection, schedule: Q01DX009 (ip), vehicle: saline with Tween-80 100 % of control | [1] 100 % of control | [2] 113 % of control | [3] 100 % of control | [4] 100 % of control

COc1ccc(/C=C/C(=O)c2ccc(OC)c(OC)c2)cc1OC
inactive: [1] 90 % of control | [3] 104 % of control | [5] 118 % of control

CCCCCCCCCCCCSC(=N)N
inactive: dose: 0.39 mg/kg/injection, schedule: Q04DX003 (ip), vehicle: saline 104 % of control | dose: 0.78 mg/kg/injection, schedule: Q04DX003 (ip), vehicle: saline 104 % of control | dose: 3.12 mg/kg/injection, schedule: Q04DX003 (ip), vehicle: saline 100 % of control | dose: 6.25 mg/kg/injection, schedule: Q01DX009 (ip), vehicle: saline 109 % of control | dose: 12.5 mg/kg/injection, schedule: Q01DX009 (ip), vehicle: saline 100 % of control | dose: 25.0 mg/kg/injection, schedule: Q01DX009 (ip), vehicle: saline 100 % of control

Nc1ccc(C(=O)CC(C(=O)O)c2ccccc2)cc1 (stereo not given)
inactive: dose: 100.0 mg/kg/injection, schedule: Q04DX002 (ip), vehicle: saline with Tween-80 88 % of control | dose: 200.0 mg/kg/injection, schedule: Q04DX002 (ip), vehicle: saline with Tween-80 90 % of control | dose: 400.0 mg/kg/injection, schedule: Q04DX002 (ip), vehicle: saline with Tween-80 99 % of control

Cc1ccc(S(=O)(=O)OCC(CO)(COS(=O)(=O)c2ccc(C)cc2)[N+](=O)[O-])cc1
inactive: dose: 100.0 mg/kg/injection, schedule: Q01DX009 (ip), vehicle: Klucel (hydroxypropylcellulose) (HPC) 100 % of control | dose: 100.0 mg/kg/injection, schedule: Q04DX003 (ip), vehicle: Klucel (hydroxypropylcellulose) (HPC) 113 % of control | dose: 200.0 mg/kg/injection, schedule: Q01DX009 (ip), vehicle: Klucel (hydroxypropylcellulose) (HPC) 95 % of control | dose: 200.0 mg/kg/injection, schedule: Q04DX003 (ip), vehicle: Klucel (hydroxypropylcellulose) (HPC) 121 % of control | dose: 400.0 mg/kg/injection, schedule: Q04DX003 (ip), vehicle: Klucel (hydroxypropylcellulose) (HPC) 121 % of control

CC12OC(=O)CC1CC(=O)O2 (stereo not given)
inactive: dose: 50.0 mg/kg/injection, schedule: Q01DX001 (ip), vehicle: saline 95 % of control | dose: 100.0 mg/kg/injection, schedule: Q01DX001 (ip), vehicle: saline 95 % of control | dose: 200.0 mg/kg/injection, schedule: Q01DX001 (ip), vehicle: saline 105 % of control

CC1=CC(=O)c2ccccc2C1=O
inactive: dose: 8.8 mg/kg/injection, schedule: Q01DX010 (ip), vehicle: carboxymethylcellulose (CMC) 110 % of control | dose: 13.3 mg/kg/injection, schedule: Q01DX010 (ip), vehicle: carboxymethylcellulose (CMC) 110 % of control | dose: 20.0 mg/kg/injection, schedule: Q01DX010 (ip), vehicle: carboxymethylcellulose (CMC) 90 % of control | dose: 30.0 mg/kg/injection, schedule: Q01DX010 (ip), vehicle: carboxymethylcellulose (CMC) 115 % of control
